According to PMC9416004, “A Versatile Class of 1,4,4-Trisubstituted Piperidines Block Coronavirus Replication In Vitro” (Pharmaceuticals, 2022):
Where two headings read alike, the source gives them in different places.

What was measured:
[1] = tested on: human embryonic lung (HEL) fibroblast cells; conditions: mock-infected HEL cells; microscopically visible alterations in cell morphology
HCoV-229E = experiment: Cytopathic effect (CPE) reduction assay with HCoV-229E in HEL cells; assay type: cell-based, human coronavirus 229E; conditions: for EC50: Human coronavirus 229E, 120 h, HCoV-229E-infected HEL cells, five days at 35 °C; for Selectivity Index Microscopy: ratio of MCC to EC50-microscopy; for Selectivity Index Microscopy / Selectivity Index MTS: only values of 10 or higher shown; for Selectivity Index MTS: ratio of CC50 to EC50-MTS
in vitro = conditions: human
[2] = protection against virus-induced CPE by MTS cell viability assay, read-out: Antiviral EC50 MTS
[3] = protection against virus-induced CPE by microscopic scoring, read-out: Antiviral EC50 Microscopy

Compound	Cytotoxicity MCC (minimal cytotoxic concentration) [1]	EC50 (HCoV-229E; [2])	EC50 (HCoV-229E; [3])	Selectivity Index Microscopy (HCoV-229E)	CC50 (in vitro)	Selectivity Index MTS (HCoV-229E)
COC(=O)C[C@H](NC(=O)OC(C)(C)C)C(=O)N(Cc1cccc(F)c1)C1(C(=O)NCc2ccccc2)CCN(Cc2ccccc2)CC1 [Compound 27]	100 µM	14 ± 1 µM	10 ± 3 µM	10	46 ± 4 µM	–
COC(=O)C[C@H](NC(=O)OC(C)(C)C)C(=O)N(Cc1ccc(F)c(F)c1)C1(C(=O)NCc2ccccc2)CCN(Cc2ccccc2)CC1 [Compound 28]	44 µM	3.7 ± 1 µM	6 ± 2.6 µM	–	23 ± 11 µM	–
COC(=O)C[C@H](NC(=O)OC(C)(C)C)C(=O)N(CCNc1ccccc1)C1(C(=O)NCc2ccccc2)CCN(Cc2ccccc2)CC1 [Compound 29]	75 µM	3.2 ± 0.4 µM	3 ± 0.1 µM	25	36 ± 9 µM	11
COC(=O)CCC(=O)N(Cc1ccc(F)cc1)C1(C(=O)NCc2ccccc2)CCN(Cc2ccccc2)CC1 [Compound 30]	100 µM	13 ± 2 µM	13 µM	–	64 ± 3 µM	–
COC(=O)C[C@H](N)C(=O)N(Cc1ccc(F)cc1)C1(C(=O)NCc2ccccc2)CCN(Cc2ccccc2)CC1 [Compound 31]	11 µM	2.8 ± 0.5 µM	3.3 ± 0.2 µM	–	4.9 ± 1.5 µM	–
COC(=O)C[C@H](N)C(=O)N(Cc1ccccc1)C1(C(=O)NCc2ccccc2)CCN(Cc2ccccc2)CC1 [Compound 32]	>100 µM	62 ± 7 µM	55 ± 3 µM	–	> 100 µM	–
COC(=O)C[C@H](NC(=O)OCC1c2ccccc2-c2ccccc21)C(=O)N(Cc1ccccc1)C1(C(=O)NCc2ccccc2)CCN(Cc2ccccc2)CC1 [Compound 35]	>100 µM	26 ± 9 µM	36 ± 14 µM	–	> 100 µM	–
CCC(C)N(C(=O)[C@H](CC(=O)OC)NC(=O)OCc1ccccc1)C1(C(=O)NCc2ccccc2)CCN(Cc2ccccc2)CC1 (stereo partly drawn) [Compound 36]	40 µM	6.2 ± 0.8 µM	9.2 ± 0.5 µM	–	27 ± 1 µM	–
COC(=O)C[C@H](NC(=O)OCc1ccccc1)C(=O)N(C1CC1)C1(C(=O)NCc2ccccc2)CCN(Cc2ccccc2)CC1 [Compound 37]	11 µM	> 100 µM	3 ± 0.1 µM	–	3.6 ± 0.1 µM	–
C[C@H](NC(=O)OC(C)(C)C)C(=O)N(Cc1ccc(F)cc1)C1(C(=O)NCc2ccccc2)CCN(Cc2ccccc2)CC1 [Compound 38]	100 µM	15 ± 3 µM	12 ± 1 µM	–	48 ± 2 µM	–
CC(C)(C)OC(=O)NCC(=O)N(Cc1ccccc1)C1(C(=O)NCc2ccccc2)CCN(Cc2ccccc2)CC1 [Compound 39]	100 µM	15 ± 2 µM	11 µM	–	49 ± 1 µM	–
COC(=O)CC[C@H](NC(=O)OC(C)(C)C)C(=O)N(Cc1ccc(F)cc1)C1(C(=O)NCc2ccccc2)CCN(Cc2ccccc2)CC1 [Compound 40]	100 µM	11 ± 4 µM	4.8 ± 1.7 µM	21	50 ± 3 µM	–
CC(C)(C)OC(=O)N[C@@H](CC(N)=O)C(=O)N(Cc1ccc(F)cc1)C1(C(=O)NCc2ccccc2)CCN(Cc2ccccc2)CC1 [Compound 41]	>100 µM	64 ± 8 µM	54 ± 4 µM	–	82 ± 13 µM	–
CC(C)(C)OC(=O)N[C@@H](CC(N)=O)C(=O)N(Cc1ccccc1)C1(C(=O)NCc2ccccc2)CCN(Cc2ccccc2)CC1 [Compound 42]	100 µM	16 ± 3 µM	13 µM	–	40 ± 6 µM	–
CC(C)(C)OC(=O)N[C@@H](CC(=O)O)C(=O)N(Cc1ccc(F)cc1)C1(C(=O)NCc2ccccc2)CCN(Cc2ccccc2)CC1 [Compound 43]	>100 µM	> 100 µM	> 100 µM	–	> 100 µM	–
CC(C)(C)OC(=O)N[C@@H](CC(=O)O)C(=O)N(Cc1ccccc1)C1(C(=O)NCc2ccccc2)CCN(Cc2ccccc2)CC1 [Compound 44]	>100 µM	> 100 µM	> 100 µM	–	> 100 µM	–
CC(C)(C)OC(=O)N[C@@H](Cc1c[nH]c2ccccc12)C(=O)N(Cc1ccccc1)C1(C(=O)NCc2ccccc2)CCN(Cc2ccccc2)CC1 [Compound 47]	>100 µM	49 ± 12 µM	57 ± 17 µM	–	> 100 µM	–
CC(C)(C)OC(=O)N[C@@H](Cc1ccc(O)cc1)C(=O)N(Cc1ccccc1)C1(C(=O)NCc2ccccc2)CCN(Cc2ccccc2)CC1 [Compound 48]	>100 µM	9.3 µM	11 ± 1 µM	–	> 100 µM	>11
CC(C)(C)OC(=O)N[C@@H](Cc1ccc(F)cc1)C(=O)N(Cc1ccccc1)C1(C(=O)NCc2ccccc2)CCN(Cc2ccccc2)CC1 [Compound 49, Tert-butyl(S)-(1-(benzyl(1-benzyl-4-benzylcarbamoylpiperidin-4-yl)amino)-3-(4-fluorophenyl)-1-oxopropan-2-yl)carbamate]	≥100 µM	8.4 µM	10 µM	≥10	> 100 µM	>12
CC(C)(C)OC(=O)NC(Cc1ccc(Cl)cc1)C(=O)N(Cc1ccccc1)C1(C(=O)NCc2ccccc2)CCN(Cc2ccccc2)CC1 (stereo not drawn) [Compound 50, Tert-butyl(1-(benzyl(1-benzyl-4-benzylcarbamoylpiperidin-4-yl)amino)-3-(4-chlorophenyl)-1-oxopropan-2-yl)carbamate]	≥100 µM	9.7 ± 0.4 µM	10 µM	≥10	> 100 µM	≥10
COc1ccc(CC(NC(=O)OC(C)(C)C)C(=O)N(Cc2ccccc2)C2(C(=O)NCc3ccccc3)CCN(Cc3ccccc3)CC2)cc1 (stereo not drawn) [Compound 51, Tert-butyl(1-(benzyl(1-benzyl-4-benzylcarbamoylpiperidin-4-yl)amino)-3-(4-methoxyphenyl)-1-oxopropan-2-yl)carbamate]	≥100 µM	4.8 ± 0.4 µM	8.2 ± 1.9 µM	≥12	> 100 µM	–
COC(=O)C[C@H](NC(=O)OCc1ccccc1)C(=O)N(Cc1ccccc1)C1(C(=O)NCc2ccccc2)CCN(CCc2ccccc2)CC1 [Compound 53, Methyl(S)-4-(benzyl(4-benzylcarbamoyl-1-phenethylpiperidin-4-yl)amino)-3-benzyloxycarbonylamino-4-oxobutanoate]	40 µM	5.8 ± 1.9 µM	6.1 ± 2 µM	–	24 ± 2 µM	–
COC(=O)C[C@H](NC(=O)OCc1ccccc1)C(=O)N(Cc1ccccc1)C1(C(=O)NCc2ccccc2)CCN(CCc2ccc(C)cc2)CC1 [Compound 54, Methyl(S)-4-(benzyl(4-benzylcarbamoyl-1-(4-methylphenethyl)piperidin-4-yl)amino)-3-benzyloxycarbonylamino-4-oxobutanoate]	40 µM	8.4 ± 0.5 µM	10 µM	–	24 ± 2 µM	–
COC(=O)C[C@H](NC(=O)OCc1ccccc1)C(=O)N(Cc1ccccc1)C1(C(=O)NCc2ccccc2)CCN(CCc2ccc([N+](=O)[O-])cc2)CC1 [Compound 55, Methyl(S)-4-(benzyl(4-benzylcarbamoyl-1-(4-nitrophenethyl)piperidin-4-yl)amino)-3-benzyloxycarbonylamino-4-oxobutanoate]	60 µM	7.7 ± 0.9 µM	10 µM	–	> 100 µM	>13
COC(=O)C[C@H](NC(=O)OCc1ccccc1)C(=O)N(Cc1ccccc1)C1(C(=O)NCc2ccccc2)CCN(CCc2ccc(F)cc2)CC1 [Compound 56, Methyl(S)-4-(benzyl(4-benzylcarbamoyl-1-(4-fluorophenethyl)piperidin-4-yl)amino)-3-benzyloxycarbonylamino-4-oxobutanoate]	32 µM	6 ± 1.9 µM	7.6 ± 1.8 µM	–	23 ± 3 µM	–
COC(=O)C[C@H](NC(=O)OCc1ccccc1)C(=O)N(CCNc1ccccc1)C1(C(=O)NCc2ccccc2)CCN(Cc2ccccc2)CC1 [Compound 57, Methyl(S)-4-((1-benzyl-4-benzylcarbamoylpiperidin-4-yl)(2-(phenylamino)ethyl)amino)-3-benzyloxycarbonylamino-4-oxobutanoate]	40 µM	7.1 ± 0.9 µM	10 µM	–	51 ± 9 µM	–
COC(=O)C[C@H](NC(=O)OCc1ccccc1)C(=O)N(CCNc1ccccc1)C1(C(=O)NCc2ccccc2)CCN(CCc2ccccc2)CC1 [Compound 58, Methyl(S)-4-((4-benzylcarbamoyl-1-phenethylpiperidin-4-yl)(2-(phenylamino)ethyl)amino)-3-benzyloxycarbonylamino-4-oxobutanoate]	24 µM	5.4 ± 1.4 µM	7.9 ± 1.9 µM	–	20 ± 4 µM	–
COC(=O)C[C@H](NC(=O)OCc1ccccc1)C(=O)N(Cc1ccc(C)cc1)C1(C(=O)NCc2ccccc2)CCN(CCc2ccccc2)CC1 [Compound 59, Methyl(S)-4-((4-benzylcarbamoyl-1-phenethylpiperidin-4-yl)(4-methylbenzyl)amino)-3-benzyloxycarbonylamino-4-oxobutanoate]	16 µM	5.1 ± 1 µM	8.8 ± 0.7 µM	–	15 ± 5 µM	–
